In ChEMBL document CHEMBL3351886 one finds Activity and inhibition data, which are given here for 3 molecules.

Holding throughout (type): cell-based
Assay [1] relates to NG108-15. Kind of assay: Agonist activity at AT2 receptor in rat and mouse hybridoma NG108-15 cells assessed as induction of neurite outgrowth at 100 nM after 3 days in presence of 1 uM AT2 receptor antagonist PD 123,319 by phase contrast microscopy.
Assay [2] relates to NG108-15. The experiment in a line: Agonist activity at AT2 receptor in rat and mouse hybridoma NG108-15 cells assessed as induction of neurite outgrowth at 100 nM after 3 days by phase contrast microscopy.
The test system of assay [3] is NG108-15. The experiment in a line: Antagonist activity at AT2 receptor in rat and mouse hybridoma NG108-15 cells assessed as reduction in angiotensin-2-induced neurite outgrowth at 100 nM after 3 days by phase contrast microscopy.

SMILES strings stand for the structures. The source made the active and inactive calls. The calls are words filed in the database; no cut-off is given here.

As for `CC[C@H](C)[C@H](NC(=O)[C@@H]1CCCN1C(=O)[C@H](Cc1c[nH]cn1)NC(=O)[C@@H](NC(=O)[C@H](Cc1ccc(O)cc1)NC(=O)[C@@H](NC(=O)[C@H](CCCN=C(N)N)NC(=O)CNC)C(C)C)[C@@H](C)CC)C(=O)O`, the result in the assay with NG108-15 [1] was inactive. Further, the result with NG108-15 [2] was Active. The inhibition entry in the assay on NG108-15 [3] is “inactive”.
As to `CNCC(=O)N[C@@H](CCCNC(=N)N)C(=O)N[C@H](C(=O)N[C@@H](Cc1ccc(O)cc1)C(=O)N[C@H](C(=O)N[C@@H](Cc1cnc[nH]1)C(=O)N1CCC[C@H]1C(=O)N[C@@H](C)C(=O)O)C(C)C)C(C)C`, the result in the assay with NG108-15 [1] was inactive. The result in the assay on NG108-15 [2] was Active. The inhibition result with NG108-15 [3] was “inactive”.
Turning to `CC[C@H](C)[C@H](NC(=O)[C@H](Cc1ccc(O)cc1)NC(=O)[C@@H](NC(=O)[C@H](CCCNC(=N)N)NC(=O)[C@@H](N)CC(=O)O)C(C)C)C(=O)N[C@@H](Cc1cnc[nH]1)C(=O)N1CCC[C@H]1C(=O)N[C@@H](Cc1ccccc1)C(=O)O`, the result with NG108-15 [1] was inactive. The outcome with NG108-15 [2] was Active.
